{
  "source": "paper PMC10317887",
  "about": "“Hypoglycaemia frequency and physiological response after double or triple doses of once-weekly insulin icodec vs once-daily insulin glargine U100 in type 2 diabetes: a randomised crossover trial” (Diabetologia, 2023)",
  "key": {"[1]": {"test_system": "individuals with type 2 diabetes", "assay": "Hypoglycaemia awareness question 'Do you feel hypo?' during hypoglycaemia induction", "type": "in vivo, human", "details": "subgroup", "procedure": "Hypoglycaemia awareness was determined by asking the question, ‘Do you feel hypo?’, to the participant."}, "glucagon": {"test_system": "glucagon", "assay": "Counterregulatory hormone response: plasma glucagon (ELISA)", "type": "in vivo, human", "details": "for Glucagon at PG3.0 mmol/l, estimated geometric mean / Glucagon at PGnadir, estimated geometric mean: plasma, subgroup", "procedure": "(§1) Plasma concentrations of glucagon were measured by an enzyme-linked immunosorbent assay (Mercodia AB, Uppsala, Sweden). Plasma concentrations of adrenaline (epinephrine) and noradrenaline (norepinephrine) were measured by liquid chromatography-mass spectrometry (Thermo Fisher Scientific, Dreieich, Germany). Serum concentrations of cortisol and growth hormone were measured by electrochemiluminescent immunoassays (Roche Diagnostics, Mannheim, Germany)."}, "adrenaline (epinephrine)": {"test_system": "adrenaline (epinephrine)", "assay": "Counterregulatory hormone response: plasma adrenaline (LC-MS)", "type": "in vivo, human", "details": "for Adrenaline at PG3.0 mmol/l, estimated geometric mean / Adrenaline at PGnadir, estimated geometric mean: plasma, subgroup", "procedure": "as §1"}, "[2]": {"test_system": "noradrenaline (norepinephrine)", "assay": "Counterregulatory hormone response: plasma noradrenaline (LC-MS)", "type": "in vivo, human", "details": "for Noradrenaline at PG3.0 mmol/l, estimated geometric mean / Noradrenaline at PGnadir, estimated geometric mean: plasma, subgroup", "procedure": "as §1"}, "cortisol": {"test_system": "cortisol", "assay": "Counterregulatory hormone response: serum cortisol (electrochemiluminescent immunoassay)", "type": "in vivo, human", "details": "for Cortisol at PG3.0 mmol/l, estimated geometric mean / Cortisol at PGnadir, estimated geometric mean: serum, subgroup; for Cortisol at PGnadir, estimated geometric mean: n=19 icodec", "procedure": "as §1"}, "growth hormone": {"test_system": "growth hormone", "assay": "Counterregulatory hormone response: serum growth hormone (electrochemiluminescent immunoassay)", "type": "in vivo, human", "details": "for Growth hormone at PG3.0 mmol/l, estimated geometric mean / Growth hormone at PGnadir, estimated geometric mean: serum, subgroup; for Growth hormone at PGnadir, estimated geometric mean: n=19 icodec", "procedure": "as §1"}, "albumin": {"test_system": "albumin", "details": "ref [9], [10]; cited from earlier work", "from_the_text": "(§2) In addition, the low insulin receptor binding affinity of icodec contributes to its long half-life by reducing the clearance rate, as insulin is mainly cleared by internalisation following binding to and activation of the insulin receptor [9, 10]. In case of excess amounts of icodec throughout the body, e.g ..."}, "insulin receptor": {"test_system": "insulin receptor", "details": "ref [9], [10]; cited from earlier work", "from_the_text": "as §2"}, "[3]": {"test_system": "individuals with type 2 diabetes", "assay": "Vital signs during hypoglycaemia induction", "details": "double dose", "protocol": "Hypoglycaemic response assessments were conducted at predefined PG levels during hypoglycaemia development and recovery (Fig. 1b). Hypoglycaemic symptoms score (HSS), hypoglycaemia awareness, counterregulatory hormones, vital signs and cognitive function tests were assessed at baseline (PG5.5 mmol/l), during hypoglycaemia development (PG3.9 mmol/l and PG3.0 mmol/l) and at PGnadir. In addition, counterregulatory hormones and vital signs were assessed during recovery from hypoglycaemia at PG3.0 mmol/l, PG3.9 mmol/l and PG5.5 mmol/l.\nVital signs (diastolic blood pressure, systolic blood pressure and pulse) were measured after ≥5 min of rest in a supine position.\nChanges in HSS, vital signs and cognitive function tests from baseline (PG5.5 mmol/l) to PG3.0 mmol/l and to PGnadir were compared between insulin products at each of the two dose levels using the same approach as described for PGnadir, except that no logarithmic transformation was done and that the baseline value was included as a covariate. Least-squares means, treatment difference and 95% CI were derived."}, "[4]": {"details": "double dose, n=17 icodec, 15 glargine U100"}, "[5]": {"details": "triple dose, n=20 icodec, 28 glargine U100"}, "[6]": {"details": "triple dose, n=20 icodec, 29 glargine U100"}, "[7]": {"details": "double dose, n=20 icodec, 19 glargine U100"}, "[8]": {"details": "change from baseline, subgroup, n=17 icodec, 15 glargine U100"}},
  "data": [
    {"substance": "insulin icodec", "values": [
      {"measurement": "Proportion of individuals answering 'Yes' to 'Do you feel hypo?'", "setting": "[1]; double dose, at PG3.0 mmol/l, n=9/17 icodec, 2/15 glargine U100", "value": 52.9, "unit": "%"},
      {"measurement": "Proportion of individuals answering 'Yes' to 'Do you feel hypo?'", "setting": "[1]; double dose, at PGnadir, n=14/20 icodec, 10/19 glargine U100", "value": 70.0, "unit": "%"},
      {"measurement": "Proportion of individuals answering 'Yes' to 'Do you feel hypo?'", "setting": "[1]; triple dose, at PG3.0 mmol/l, n=5/20 icodec, 8/28 glargine U100", "value": 25.0, "unit": "%"},
      {"measurement": "Proportion of individuals answering 'Yes' to 'Do you feel hypo?'", "setting": "[1]; triple dose, at PGnadir, n=9/20 icodec, 15/29 glargine U100", "value": 45.0, "unit": "%"},
      {"measurement": "Glucagon at PG3.0 mmol/l, treatment ratio (95% CI) icodec vs glargine U100", "setting": "glucagon; double dose", "value": "0.83 (0.59, 1.16)"},
      {"measurement": "Glucagon at PGnadir, treatment ratio (95% CI) icodec vs glargine U100", "setting": "glucagon; double dose", "value": "0.92 (0.69, 1.23)"},
      {"measurement": "Glucagon at PG3.0 mmol/l, estimated geometric mean", "setting": "glucagon; [4]", "value": 39.6, "unit": "ng/L"},
      {"measurement": "Glucagon at PGnadir, estimated geometric mean", "setting": "glucagon; double dose, n=19 icodec, 19 glargine U100", "value": 48.9, "unit": "ng/L"},
      {"measurement": "Glucagon at PGnadir, treatment ratio (95% CI) icodec vs glargine U100", "setting": "glucagon; triple dose", "value": "1.01 (0.74, 1.38)"},
      {"measurement": "Glucagon at PG3.0 mmol/l, treatment ratio (95% CI) icodec vs glargine U100", "setting": "glucagon; triple dose, listed as Insulin icodec", "value": "1.07 (0.86, 1.33)"},
      {"measurement": "Glucagon at PG3.0 mmol/l, treatment ratio (95% CI) icodec vs glargine U100", "setting": "glucagon; triple dose, listed as icodec", "value": 1.07},
      {"measurement": "Glucagon at PG3.0 mmol/l, estimated geometric mean", "setting": "glucagon; [5]", "value": 55.2, "unit": "ng/L"},
      {"measurement": "Glucagon at PGnadir, estimated geometric mean", "setting": "glucagon; [6]", "value": 59.8, "unit": "ng/L"},
      {"measurement": "Adrenaline at PG3.0 mmol/l, treatment ratio (95% CI) icodec vs glargine U100", "setting": "adrenaline (epinephrine); double dose", "value": "0.90 (0.54, 1.52)"},
      {"measurement": "Adrenaline at PGnadir, treatment ratio (95% CI) icodec vs glargine U100", "setting": "adrenaline (epinephrine); double dose", "value": "0.90 (0.62, 1.30)"},
      {"measurement": "Adrenaline at PG3.0 mmol/l, estimated geometric mean", "setting": "adrenaline (epinephrine); [4]", "value": 476.7, "unit": "pmol/L"},
      {"measurement": "Adrenaline at PGnadir, estimated geometric mean", "setting": "adrenaline (epinephrine); [7]", "value": 530.4, "unit": "pmol/L"},
      {"measurement": "Adrenaline at PG3.0 mmol/l, treatment ratio (95% CI) icodec vs glargine U100", "setting": "adrenaline (epinephrine); triple dose", "value": 2.54},
      {"measurement": "Adrenaline at PGnadir, treatment ratio (95% CI) icodec vs glargine U100", "setting": "adrenaline (epinephrine); triple dose", "value": "1.29 (0.88, 1.89)"},
      {"measurement": "Adrenaline at PG3.0 mmol/l, estimated geometric mean", "setting": "adrenaline (epinephrine); [5]", "value": 793.8, "unit": "pmol/L"},
      {"measurement": "Adrenaline at PGnadir, estimated geometric mean", "setting": "adrenaline (epinephrine); [6]", "value": 735.8, "unit": "pmol/L"},
      {"measurement": "Noradrenaline at PG3.0 mmol/l, treatment ratio (95% CI) icodec vs glargine U100", "setting": "[2]; double dose", "value": "1.12 (0.83, 1.50)"},
      {"measurement": "Noradrenaline at PGnadir, treatment ratio (95% CI) icodec vs glargine U100", "setting": "[2]; double dose", "value": "1.19 (0.91, 1.55)"},
      {"measurement": "Noradrenaline at PG3.0 mmol/l, estimated geometric mean", "setting": "[2]; [4]", "value": 952.7, "unit": "pmol/L"},
      {"measurement": "Noradrenaline at PGnadir, estimated geometric mean", "setting": "[2]; [7]", "value": 1078.0, "unit": "pmol/L"},
      {"measurement": "Noradrenaline at PG3.0 mmol/l, treatment ratio (95% CI) icodec vs glargine U100", "setting": "[2]; triple dose", "value": 1.26},
      {"measurement": "Noradrenaline at PGnadir, treatment ratio (95% CI) icodec vs glargine U100", "setting": "[2]; triple dose", "value": "1.05 (0.79, 1.40)"},
      {"measurement": "Noradrenaline at PG3.0 mmol/l, estimated geometric mean", "setting": "[2]; [5]", "value": 1058.4, "unit": "pmol/L"},
      {"measurement": "Noradrenaline at PGnadir, estimated geometric mean", "setting": "[2]; [6]", "value": 934.1, "unit": "pmol/L"},
      {"measurement": "Cortisol at PG3.0 mmol/l, treatment ratio (95% CI) icodec vs glargine U100", "setting": "cortisol; double dose", "value": "1.60 (0.91, 2.80)"},
      {"measurement": "Cortisol at PGnadir, treatment ratio (95% CI) icodec vs glargine U100", "setting": "cortisol; double dose", "value": "0.99 (0.67, 1.45)"},
      {"measurement": "Cortisol at PG3.0 mmol/l, estimated geometric mean", "setting": "cortisol; [4]", "value": 245.9, "unit": "nmol/L"},
      {"measurement": "Cortisol at PGnadir, estimated geometric mean", "setting": "cortisol; double dose, 19 glargine U100", "value": 296.0, "unit": "nmol/L"},
      {"measurement": "Cortisol at PG3.0 mmol/l, treatment ratio (95% CI) icodec vs glargine U100", "setting": "cortisol; triple dose", "value": 1.64},
      {"measurement": "Cortisol at PGnadir, treatment ratio (95% CI) icodec vs glargine U100", "setting": "cortisol; triple dose", "value": 1.80},
      {"measurement": "Cortisol at PGnadir, estimated geometric mean", "setting": "cortisol; triple dose, 29 glargine U100", "value": 355.0, "unit": "nmol/L"},
      {"measurement": "Cortisol at PG3.0 mmol/l, estimated geometric mean", "setting": "cortisol; [5]", "value": 201.4, "unit": "nmol/L"},
      {"measurement": "Growth hormone at PG3.0 mmol/l, treatment ratio (95% CI) icodec vs glargine U100", "setting": "growth hormone; double dose", "value": "0.89 (0.46, 1.75)"},
      {"measurement": "Growth hormone at PGnadir, treatment ratio (95% CI) icodec vs glargine U100", "setting": "growth hormone; double dose", "value": "1.35 (0.94, 1.94)"},
      {"measurement": "Growth hormone at PG3.0 mmol/l, estimated geometric mean", "setting": "growth hormone; [4]", "value": 3.6, "unit": "µg/L"},
      {"measurement": "Growth hormone at PGnadir, estimated geometric mean", "setting": "growth hormone; double dose, 19 glargine U100", "value": 4.7, "unit": "µg/L"},
      {"measurement": "Growth hormone at PG3.0 mmol/l, treatment ratio (95% CI) icodec vs glargine U100", "setting": "growth hormone; triple dose", "value": 1.54},
      {"measurement": "Growth hormone at PGnadir, treatment ratio (95% CI) icodec vs glargine U100", "setting": "growth hormone; triple dose", "value": "1.10 (0.50, 2.43)"},
      {"measurement": "Growth hormone at PGnadir, estimated geometric mean", "setting": "growth hormone; triple dose, 29 glargine U100", "value": 3.8, "unit": "µg/L"},
      {"measurement": "Growth hormone at PG3.0 mmol/l, estimated geometric mean", "setting": "growth hormone; [5]", "value": 3.7, "unit": "µg/L"},
      {"measurement": "Binding to albumin", "setting": "albumin", "value": "strong, reversible binding"},
      {"measurement": "Insulin receptor binding affinity", "setting": "insulin receptor", "value": "low"},
      {"measurement": "Change in DBP at PG3.0 mmol/l, treatment difference (95% CI) icodec vs glargine U100", "setting": "[3]", "value": "1.7 (-3.1, 6.4)"},
      {"measurement": "Change in DBP at PGnadir, treatment difference (95% CI) icodec vs glargine U100", "setting": "[3]", "value": "0.5 (-4.0, 4.9)"},
      {"measurement": "Change in SBP at PG3.0 mmol/l, treatment difference (95% CI) icodec vs glargine U100", "setting": "[3]", "value": "3.7 (-4.3, 11.7)"},
      {"measurement": "Change in SBP at PGnadir, treatment difference (95% CI) icodec vs glargine U100", "setting": "[3]", "value": "-5.2 (-16.5, 6.1)"},
      {"measurement": "Change in pulse at PG3.0 mmol/l, treatment difference (95% CI) icodec vs glargine U100", "setting": "[3]", "value": "-0.9 (-7.4, 5.7)"},
      {"measurement": "Change in pulse at PGnadir, treatment difference (95% CI) icodec vs glargine U100", "setting": "[3]", "value": "0.2 (-5.0, 5.4)"},
      {"measurement": "Change in SBP at PG3.0 mmol/l, least-squares mean", "setting": "[3]; [8]", "value": -4.9, "unit": "mmHg"},
      {"measurement": "Change in pulse at PG3.0 mmol/l, least-squares mean", "setting": "[3]; [8]", "value": -1.3, "unit": "beats/min"}
    ]}
  ]
}
